Measurements as given in PMC5218480 (PLoS ONE, 2017).

System: MV-4-11 cells
Test: Gene expression microarray analysis (Affymetrix PrimeView) and GSEA
Format: cell-based, human
Set-up: RFU PODN (11730768_x_at) / Fold change /veh PODN (11730768_x_at) / RFU LINC00158 (11744669_a_at) / Fold change /veh LINC00158 (11744669_a_at) / RFU DUSP10 (11751237_a_at) / Fold change /veh DUSP10 (11751237_a_at) / RFU ID3 (11757404_x_at) / Fold change /veh ID3 (11757404_x_at) / RFU PLEKHG5 (11737974_s_at) / Fold change /veh PLEKHG5 (11737974_s_at) / RFU LRRC4B (11730491_at) / Fold change /veh LRRC4B (11730491_at) / RFU GIMAP4 (11747438_a_at) / Fold change /veh GIMAP4 (11747438_a_at) / RFU KRT8 (11758183_x_at) / Fold change /veh KRT8 (11758183_x_at) / RFU CNN1 (11734310_a_at) / Fold change /veh CNN1 (11734310_a_at) / RFU VPS37D (11726825_at) / Fold change /veh VPS37D (11726825_at) / RFU C10orf10 (11716522_x_at) / Fold change /veh C10orf10 (11716522_x_at) / RFU KIR2DL2 /// KIR2DL4 /// KIR2DL5A /// KIR2DL5B /// KIR2DS1 /// KIR2DS2 /// KIR2DS3 /// KIR2DS4 /// KIR3DL3 /// KIR3DL3 /// KIR3DS1 (11738374_at) / Fold change /veh KIR2DL2 /// KIR2DL4 /// KIR2DL5A /// KIR2DL5B /// KIR2DS1 /// KIR2DS2 /// KIR2DS3 /// KIR2DS4 /// KIR3DL3 /// KIR3DL3 /// KIR3DS1 (11738374_at) / RFU C1QL1 (11718748_at) / Fold change /veh C1QL1 (11718748_at) / RFU TMPRSS4 (11747572_a_at) / Fold change /veh TMPRSS4 (11747572_a_at) / RFU HAMP (11756126_x_at) / Fold change /veh HAMP (11756126_x_at) / RFU RNFT2 (11725882_a_at) / Fold change /veh RNFT2 (11725882_a_at) / RFU NR4A2 (11747474_a_at) / Fold change /veh NR4A2 (11747474_a_at) / RFU ABCC12 (11746883_a_at) / Fold change /veh ABCC12 (11746883_a_at) / RFU TMEM136 (11760407_x_at) / Fold change /veh TMEM136 (11760407_x_at) / RFU CLDN22 /// WWC2 (11732394_at) / Fold change /veh CLDN22 /// WWC2 (11732394_at) / RFU HLA-DPB1 (11760878_x_at) / Fold change /veh HLA-DPB1 (11760878_x_at) / RFU SPINT1 (11716480_a_at) / Fold change /veh SPINT1 (11716480_a_at) / RFU GAP43 (11754022_s_at) / Fold change /veh GAP43 (11754022_s_at) / RFU A4GNT (11735810_at) / Fold change /veh A4GNT (11735810_at) / RFU PRB3 (11715151_x_at) / Fold change /veh PRB3 (11715151_x_at) / RFU TUBB4B (11761932_at) / Fold change /veh TUBB4B (11761932_at) / RFU CAPN14 (11732068_a_at) / Fold change /veh CAPN14 (11732068_a_at) / RFU TMCC2 (11721928_a_at) / Fold change /veh TMCC2 (11721928_a_at) / RFU IRGQ (11745062_a_at) / Fold change /veh IRGQ (11745062_a_at) / RFU FAM174B (11720279_a_at) / Fold change /veh FAM174B (11720279_a_at) / RFU TMPRSS4 (11748680_a_at) / Fold change /veh TMPRSS4 (11748680_a_at) / RFU FAM212B (11763350_a_at) / Fold change /veh FAM212B (11763350_a_at) / RFU PLEKHG5 (11743358_a_at) / Fold change /veh PLEKHG5 (11743358_a_at) / RFU ZSCAN30 (11745921_a_at) / Fold change /veh ZSCAN30 (11745921_a_at) / RFU CMKLR1 (11741424_a_at) / Fold change /veh CMKLR1 (11741424_a_at) / RFU LOC101060620 /// MAPK8IP1 (11723275_at) / Fold change /veh LOC101060620 /// MAPK8IP1 (11723275_at) / RFU SPTSSB (11747773_x_at) / Fold change /veh SPTSSB (11747773_x_at) / RFU PRSS12 (11739890_at) / Fold change /veh PRSS12 (11739890_at) / RFU BIN1 (11741810_x_at) / Fold change /veh BIN1 (11741810_x_at) / RFU WNT11 (11732464_a_at) / Fold change /veh WNT11 (11732464_a_at) / RFU C10orf10 (11716521_a_at) / Fold change /veh C10orf10 (11716521_a_at) / RFU C5orf56 (11738089_at) / Fold change /veh C5orf56 (11738089_at) / RFU CYB561 (11721691_x_at) / Fold change /veh CYB561 (11721691_x_at) / RFU ANKRD19P (11752326_a_at) / Fold change /veh ANKRD19P (11752326_a_at) / RFU OR2T12 /// OR2T33 /// OR2T8 (11738714_s_at) / Fold change /veh OR2T12 /// OR2T33 /// OR2T8 (11738714_s_at) / RFU VCAN (11748164_a_at) / Fold change /veh VCAN (11748164_a_at) / RFU JSRP1 (11732532_at) / Fold change /veh JSRP1 (11732532_at) / RFU KRTAP10-11 (11738290_x_at) / Fold change /veh KRTAP10-11 (11738290_x_at) / RFU MYO3A (11730013_a_at) / Fold change /veh MYO3A (11730013_a_at) / RFU EBF3 (11725865_a_at) / Fold change /veh EBF3 (11725865_a_at) / RFU CAMK2N1 (11719241_x_at) / Fold change /veh CAMK2N1 (11719241_x_at) / RFU C5orf56 (11738088_a_at) / Fold change /veh C5orf56 (11738088_a_at) / RFU OLFML3 (11715873_a_at) / Fold change /veh OLFML3 (11715873_a_at) / RFU LOC100653217 /// NTM (11731650_a_at) / Fold change /veh LOC100653217 /// NTM (11731650_a_at) / RFU MAPK11 (11762145_a_at) / Fold change /veh MAPK11 (11762145_a_at) / RFU FIZ1 (11724087_x_at) / Fold change /veh FIZ1 (11724087_x_at) / RFU OASL (11726364_x_at) / Fold change /veh OASL (11726364_x_at) / RFU SOX15 (11748057_x_at) / Fold change /veh SOX15 (11748057_x_at) / RFU CD79A (11719716_a_at) / Fold change /veh CD79A (11719716_a_at) / RFU HIST1H1D (11736915_at) / Fold change /veh HIST1H1D (11736915_at) / RFU CASKIN2 (11723855_a_at) / Fold change /veh CASKIN2 (11723855_a_at) / RFU LOC730098 (11760151_x_at) / Fold change /veh LOC730098 (11760151_x_at) / RFU OR4N2 (11742367_at) / Fold change /veh OR4N2 (11742367_at) / RFU PRRT2 (11749266_a_at) / Fold change /veh PRRT2 (11749266_a_at) / RFU SNX32 (11753110_a_at) / Fold change /veh SNX32 (11753110_a_at) / RFU CDHR5 (11726645_a_at) / Fold change /veh CDHR5 (11726645_a_at) / RFU RCAN1 (11760418_a_at) / Fold change /veh RCAN1 (11760418_a_at) / RFU FAM167A (11723789_a_at) / Fold change /veh FAM167A (11723789_a_at) / RFU FAM26E (11764081_at) / Fold change /veh FAM26E (11764081_at) / RFU ISYNA1 (11749810_s_at) / Fold change /veh ISYNA1 (11749810_s_at) / RFU ACY1 (11761880_at) / Fold change /veh ACY1 (11761880_at) / RFU 11764098_at / Fold change /veh 11764098_at / RFU SAMD14 (11745864_x_at) / Fold change /veh SAMD14 (11745864_x_at) / RFU NPB (11741838_a_at) / Fold change /veh NPB (11741838_a_at) / RFU TMPRSS6 (11731388_a_at) / Fold change /veh TMPRSS6 (11731388_a_at) / RFU KRTAP10-2 (11738614_at) / Fold change /veh KRTAP10-2 (11738614_at) / RFU ARHGAP8 /// PRR5-ARHGAP8 (11727945_x_at) / Fold change /veh ARHGAP8 /// PRR5-ARHGAP8 (11727945_x_at) / RFU KRTAP5-7 /// NADSYN1 (11734609_at) / Fold change /veh KRTAP5-7 /// NADSYN1 (11734609_at) / RFU RASL12 (11751679_a_at) / Fold change /veh RASL12 (11751679_a_at) / RFU CDKN2B (11736163_a_at) / Fold change /veh CDKN2B (11736163_a_at) / RFU PRF1 (11729649_at) / Fold change /veh PRF1 (11729649_at) / RFU, ZNF638 /// ZNF638-IT1 / Fold change vs veh, ZNF638 /// ZNF638-IT1 / RFU, PANK3 / Fold change vs veh, PANK3 / RFU, SH3YL1 / Fold change vs veh, SH3YL1 / RFU, ZEB2 / Fold change vs veh, ZEB2 / RFU, NRIP1 / Fold change vs veh, NRIP1 / RFU, PTTG1IP / Fold change vs veh, PTTG1IP / RFU, CAPN2 / Fold change vs veh, CAPN2 / RFU, MED14 / Fold change vs veh, MED14 / RFU, SNORA58 / Fold change vs veh, SNORA58 / RFU, C1orf63 / Fold change vs veh, C1orf63 / RFU, LRRFIP1 / Fold change vs veh, LRRFIP1 / RFU, NDUFAF7 / Fold change vs veh, NDUFAF7 / RFU, SLC12A2 / Fold change vs veh, SLC12A2 / RFU, IBTK / Fold change vs veh, IBTK / RFU, ESF1 / Fold change vs veh, ESF1 / Fold change vs veh, TMEM50B / RFU, TAOK1 / Fold change vs veh, TAOK1 / RFU, ACBD3 / Fold change vs veh, ACBD3 / RFU, TMA16 / Fold change vs veh, TMA16 / RFU, RWDD3 / Fold change vs veh, RWDD3 / RFU, BCAT1 / Fold change vs veh, BCAT1 / RFU, EDEM3 / Fold change vs veh, EDEM3 / RFU, TMEM33 / Fold change vs veh, TMEM33 / RFU, WDR75 / Fold change vs veh, WDR75 / RFU, AHCTF1 / Fold change vs veh, AHCTF1 / RFU, TFRC / Fold change vs veh, TFRC / RFU, ZDHHC17 / Fold change vs veh, ZDHHC17 / RFU, NOM1 / Fold change vs veh, NOM1 / RFU, ARL8B / Fold change vs veh, ARL8B / RFU, ZBTB11 / Fold change vs veh, ZBTB11 / RFU, TAMM41 / Fold change vs veh, TAMM41 / RFU, KIAA1704 /// LOC100996395 / Fold change vs veh, KIAA1704 /// LOC100996395 / RFU, ING1 / Fold change vs veh, ING1 / RFU, TRMT61B / Fold change vs veh, TRMT61B / RFU, FUBP3 / Fold change vs veh, FUBP3 / RFU, TP53 / Fold change vs veh, TP53 / RFU, TNKS2 / Fold change vs veh, TNKS2 / RFU, ZFP14 / Fold change vs veh, ZFP14 / RFU, ACTR2 / Fold change vs veh, ACTR2 / RFU, PPP3R1 / Fold change vs veh, PPP3R1 / RFU, PIK3R1 / Fold change vs veh, PIK3R1 / RFU, HNRNPA1 / Fold change vs veh, HNRNPA1 / RFU, RNF170 / Fold change vs veh, RNF170 / RFU, ZNF28 / Fold change vs veh, ZNF28 / RFU, RNGTT / Fold change vs veh, RNGTT / RFU, OGT / Fold change vs veh, OGT / RFU, BRD1 / Fold change vs veh, BRD1 / RFU, MARS / Fold change vs veh, MARS / RFU, ZNF655 / Fold change vs veh, ZNF655 / RFU, FAHD1 / Fold change vs veh, FAHD1 / RFU, BDP1 / Fold change vs veh, BDP1 / RFU, LRRCC1 / Fold change vs veh, LRRCC1 / RFU, ARID1A / Fold change vs veh, ARID1A / RFU, ZNF146 / Fold change vs veh, ZNF146 / RFU, ZNF330 / Fold change vs veh, ZNF330 / RFU, GPN3 / Fold change vs veh, GPN3 / RFU, C9orf123 / Fold change vs veh, C9orf123 / RFU, N4BP2L2 / Fold change vs veh, N4BP2L2 / RFU, ARFIP1 / Fold change vs veh, ARFIP1 / RFU, FAM179B / Fold change vs veh, FAM179B / RFU, BCL10 / Fold change vs veh, BCL10 / RFU, UHRF1BP1L / Fold change vs veh, UHRF1BP1L / RFU, BET1 / Fold change vs veh, BET1 / RFU, CNOT2 / Fold change vs veh, CNOT2 / RFU, ZNF268 / Fold change vs veh, ZNF268 / Fold change vs veh, ZNF507 / RFU, DGCR2 / Fold change vs veh, DGCR2 / RFU, WDSUB1 / Fold change vs veh, WDSUB1 / Fold change vs veh, HSP90B1 /// MIR3652 / RFU, ADSS / Fold change vs veh, ADSS / RFU, GK / Fold change vs veh, GK / RFU, ZNF148 / Fold change vs veh, ZNF148 / RFU, TAF9 / Fold change vs veh, TAF9 / RFU, SLC1A5 / Fold change vs veh, SLC1A5 / RFU, SLMO2 / Fold change vs veh, SLMO2 / RFU, ABCC4 / Fold change vs veh, ABCC4 / RFU, LOC101060439 /// RAP1B / Fold change vs veh, LOC101060439 /// RAP1B / RFU, RFX7 / Fold change vs veh, RFX7 / RFU, GTPBP10 / Fold change vs veh, GTPBP10 / RFU, CNEP1R1 / Fold change vs veh, CNEP1R1 / RFU, BIVM-ERCC5 /// ERCC5 / Fold change vs veh, BIVM-ERCC5 /// ERCC5 / RFU, ILF3 / Fold change vs veh, ILF3 / RFU 11762660_at / Fold change /veh 11762660_at / RFU VCAN (11757783_s_at) / Fold change /veh VCAN (11757783_s_at) / RFU DDX43 (11728927_at) / Fold change /veh DDX43 (11728927_at) / RFU KRT8 (11758188_x_at) / Fold change /veh KRT8 (11758188_x_at) / RFU NKD1 (11759106_at) / Fold change /veh NKD1 (11759106_at) / RFU SRD5A1 (11742802_a_at) / Fold change /veh SRD5A1 (11742802_a_at) / RFU TPSAB1 /// TPSB2 (11721975_s_at) / Fold change /veh TPSAB1 /// TPSB2 (11721975_s_at) / RFU GSTM3 (11746129_a_at) / Fold change /veh GSTM3 (11746129_a_at) / RFU IL23R (11737362_x_at) / Fold change /veh IL23R (11737362_x_at) / RFU TMEM51 (11727254_a_at) / Fold change /veh TMEM51 (11727254_a_at) / RFU PIWIL2 (11732686_x_at) / Fold change /veh PIWIL2 (11732686_x_at) / RFU ORM1 (11744905_x_at) / Fold change /veh ORM1 (11744905_x_at) / RFU CCDC152 (11743942_at) / Fold change /veh CCDC152 (11743942_at) / RFU ECM1 (11717891_a_at) / Fold change /veh ECM1 (11717891_a_at) / RFU IL23R (11748794_a_at) / Fold change /veh IL23R (11748794_a_at) / RFU TNFAIP8L3 (11732012_x_at) / Fold change /veh TNFAIP8L3 (11732012_x_at) / RFU MBOAT4 (11741988_at) / Fold change /veh MBOAT4 (11741988_at) / RFU 11764193_at / Fold change /veh 11764193_at / RFU TMEM53 (11763286_at) / Fold change /veh TMEM53 (11763286_at) / RFU MAGEB2 (11727129_at) / Fold change /veh MAGEB2 (11727129_at) / RFU TMEM200A (11744735_a_at) / Fold change /veh TMEM200A (11744735_a_at) / RFU CCDC152 (11751479_a_at) / Fold change /veh CCDC152 (11751479_a_at) / RFU FAM211A (11726209_a_at) / Fold change /veh FAM211A (11726209_a_at) / RFU RGS16 (11746705_a_at) / Fold change /veh RGS16 (11746705_a_at) / RFU VCAN (11755009_s_at) / Fold change /veh VCAN (11755009_s_at) / RFU RHOB (11743442_s_at) / Fold change /veh RHOB (11743442_s_at) / RFU RGS16 (11720943_a_at) / Fold change /veh RGS16 (11720943_a_at) / RFU RGS16 (11720944_at) / Fold change /veh RGS16 (11720944_at) / RFU, VPS4B / Fold change vs veh, VPS4B / RFU, CREB1 / Fold change vs veh, CREB1 / RFU, DNAJC13 / Fold change vs veh, DNAJC13 / RFU, GNAQ / Fold change vs veh, GNAQ / RFU, CDK5R1 / Fold change vs veh, CDK5R1 / RFU, ZRANB3 / Fold change vs veh, ZRANB3 / RFU, CUL4A / Fold change vs veh, CUL4A / RFU, CCNY / Fold change vs veh, CCNY / RFU, UFL1 / Fold change vs veh, UFL1 / RFU, COG3 / Fold change vs veh, COG3 / RFU, DIAPH2 / Fold change vs veh, DIAPH2 / RFU, SKA2 / Fold change vs veh, SKA2 / RFU, AFF3 / Fold change vs veh, AFF3 / RFU, LMF1 / Fold change vs veh, LMF1 / RFU, IPO11 / Fold change vs veh, IPO11 / RFU, DFFB / Fold change vs veh, DFFB / RFU, FOXP1 / Fold change vs veh, FOXP1 / RFU, CARD8 / Fold change vs veh, CARD8 / RFU, STRN3 / Fold change vs veh, STRN3 / RFU, ADK / Fold change vs veh, ADK / RFU, RASSF2 / Fold change vs veh, RASSF2 / RFU, WIPF1 / Fold change vs veh, WIPF1 / RFU, LARP1B / Fold change vs veh, LARP1B / RFU, RASA1 / Fold change vs veh, RASA1 / RFU, RB1 / Fold change vs veh, RB1 / RFU, PPFIA1 / Fold change vs veh, PPFIA1 / RFU, MAT2A / Fold change vs veh, MAT2A / RFU, CCT5 / Fold change vs veh, CCT5 / RFU, WDR92 / Fold change vs veh, WDR92 / RFU, CUX1 / Fold change vs veh, CUX1 / RFU, TTC7A / Fold change vs veh, TTC7A / RFU, TMEM135 / Fold change vs veh, TMEM135 / RFU, DEPTOR / Fold change vs veh, DEPTOR / RFU, CPM / Fold change vs veh, CPM / RFU, DNAJB6 / Fold change vs veh, DNAJB6 / RFU, CACNA2D3 / Fold change vs veh, CACNA2D3 / RFU, DTX4 / Fold change vs veh, DTX4 / RFU, TFCP2 / Fold change vs veh, TFCP2 / RFU, GMCL1 /// GMCL1P1 / Fold change vs veh, GMCL1 /// GMCL1P1 / RFU, AEBP2 / Fold change vs veh, AEBP2 / RFU, SNHG1 /// SNORD22 /// SNORD25 /// SNORD26 /// SNORD27 /// SNORD28 /// SNORD29 /// SNORD31 / Fold change vs veh, SNHG1 /// SNORD22 /// SNORD25 /// SNORD26 /// SNORD27 /// SNORD28 /// SNORD29 /// SNORD31 / Fold change (Aza/veh), C12orf56 (ProbeSet 11735607_a_at) / Fold change (ACY-1035/veh), C12orf56 (ProbeSet 11735607_a_at) / Fold change (Aza/veh), FGFR1OP (ProbeSet 11751329_s_at) / Fold change (ACY-1035/veh), FGFR1OP (ProbeSet 11751329_s_at) / Fold change (Aza/veh), VPS36 (ProbeSet 11739960_a_at) / Fold change (ACY-1035/veh), VPS36 (ProbeSet 11739960_a_at) / RFU SYPL1 (11715823_x_at) / Fold change /veh SYPL1 (11715823_x_at) / RFU IGFBP7 (11715501_s_at) / Fold change /veh IGFBP7 (11715501_s_at) / RFU REEP3 (11722064_at) / Fold change /veh REEP3 (11722064_at) / RFU IGLL1 (11728026_x_at) / Fold change /veh IGLL1 (11728026_x_at): dose or concentration left out as unconfirmed
Settings: ProbeSet 11730252_s_at; LIST B

**Q.** `Nc1ccc(-c2cccs2)cc1NC(=O)c1ccc2c(c1)cc(C1CC1)n2CCN1CCOCC1` [ACY-1035] was tested. Which “Fold change vs veh, AHCTF1” value did it give?
**A.** 0.96
